{"source": "patent US20100292471A1", "about": "“PEPTIDE NUCLEIC ACID OLIGOMERS […] BASES,PREPARATION METHODS THEREOF, AND KITS, DEVICES AND METHODS FOR THE ANALYSIS, DETECTION OR MODULATION OF NUCLEIC ACIDS USING THE SAME” (PANAGENE INC., priority 2006, published 2010)", "key": {"[1]": {"test_system": "PCR product of HBV mutant type", "experiment": "PNA microarray hybridization with biotinylated PCR product, streptavidine-Cy5 fluorescence (perfect match)", "assay_type": "binding, hepatitis B virus (HBV)", "method": "The purified oligomer was diluted at a concentration of […], and spotted on a slide glass functionalized with epoxy group (Panagene, Korea) in pin mode, and the slide was allowed to stand for 4 hours at room temperature while maintaining 75% humidity. Then, it was immersed into DMF, and washed by ultrasonication for 15 minutes. It was immersed into DMF containing 0.1 M succinic anhydride and reacted at 40° C. for 2 hours. And the reaction mixture was washed by ultrasonication with DMF and deionized water, sequentially, for 15 minutes per time. Then, the slide was treated with 100 mM Tris-HCl buffer containing 0.1 M ethanolamine for 2 hours to inactivate the residual epoxy groups on the surface of the slide glass. The slide glass was washed by ultrasonication with deionized water, twice for 15 minutes per time, treated with boiling water for 5 minutes, washed with deionized water for 5 minutes, and dried. Then, a PNA microarray was ready for hybridization after attaching a silicon rubber sealing mat having holes, which can contain 100 μl of hybridization solution, to the slide glass.\nTo a hybridization solution of 100 μl was added 5 μl of the PCR product of HBV mutant type having biotin attached thereto, and streptavidine-Cy5 was added thereto to cause fluorescent reaction. […] The PNA microarray was scanned by a fluorescence scanner. […]"}, "[2]": {"test_system": "PCR product of HBV wild type", "experiment": "PNA microarray hybridization with biotinylated PCR product, streptavidine-Cy5 fluorescence (single mismatch)", "assay_type": "binding, hepatitis B virus (HBV)", "details": "hybridization at 40° C. for 2 hours, fluorescence scanner, SEQ ID Nos. 2 to 4 compared to SEQ ID No. 1"}}}
{"substance": "k(k)k-OO-GAGCCATGAGAAA (all peptide nucleic acid (PNA); N-terminal lysines and OO linker attached) [SEQ ID No. 1, PNA oligomer, 13 mer consisting of natural bases to detect mutation]", "values": [{"measurement": "perfect match signal", "setting": "[1]; PCR product of HBV mutant type, hybridization at 40° C. for 2 hours, fluorescence scanner, FIGS. 2 and 3", "result": "intensive perfect match signal"}, {"measurement": "discriminability of HBV mutant type against wild type", "setting": "[1]; perfect match signal for HBV mutant type versus single mismatch signal for HBV wild type", "result": "cannot discriminate HBV mutant type against wild type"}, {"measurement": "single mismatch signal", "setting": "[2]", "result": "intensive single mismatch signal"}]}
